Experimental data reported in ChEMBL document CHEMBL3351708, “Synthesis of new pyridazino[4,5-b]indol-4-ones and pyridazin-3(2H)-one analogs as DYRK1A inhibitors” (Bioorg Med Chem Lett, 2014).

Experiments:
[1] = target: Glycogen synthase kinase-3 (Homo sapiens, UniProt P49840+P49841); assay: Inhibition of GSK3alpha/beta (unknown origin); assay type: protein assay
[2] = target: Cyclin-dependent kinase 5/CDK5 activator 1 (Homo sapiens, UniProt Q00535); assay: Inhibition of CDK5/p25 (unknown origin); assay type: protein-complex assay
[3] = target: Dual specificity tyrosine-phosphorylation-regulated kinase 1A (Homo sapiens, UniProt Q13627); assay: Inhibition of DYRK1A (unknown origin)
[4] = Antiproliferative activity against human HuH7 cells; assay type: functional, cell-based; details: Huh-7
[5] = Antiproliferative activity against human fibroblast cells; assay type: cell-based
[6] = Antiproliferative activity against human HCT116 cells; assay type: functional, cell-based; details: HCT-116
[7] = Antiproliferative activity against human Caco2 cells; assay type: functional, cell-based; details: Caco-2
[8] = Antiproliferative activity against human PC3 cells; assay type: functional, cell-based; details: PC-3
[9] = target: Phosphatidylinositol 4,5-bisphosphate 3-kinase catalytic subunit alpha isoform (Homo sapiens, UniProt P42336); assay: Inhibition of p110alpha (unknown origin)
[10] = test system: NCI-H727; assay: Antiproliferative activity against human NCI-H727 cells; assay type: functional, cell-based
[11] = test system: MDA-MB-231; assay: Antiproliferative activity against human MDA-MB-231 cells; assay type: functional, cell-based
[12] = Antiproliferative activity against human HuH7 cells assessed as decrease in cell growth; assay type: functional, Huh-7
[13] = test system: MDA-MB-231; assay: Antiproliferative activity against human MDA-MB-231 cells assessed as decrease in cell growth; assay type: functional
[14] = Antiproliferative activity against human HCT116 cells assessed as decrease in cell growth; assay type: functional, HCT-116

Chain of Cyclin-dependent kinase 5/CDK5 activator 1 (Q00535 whole entry): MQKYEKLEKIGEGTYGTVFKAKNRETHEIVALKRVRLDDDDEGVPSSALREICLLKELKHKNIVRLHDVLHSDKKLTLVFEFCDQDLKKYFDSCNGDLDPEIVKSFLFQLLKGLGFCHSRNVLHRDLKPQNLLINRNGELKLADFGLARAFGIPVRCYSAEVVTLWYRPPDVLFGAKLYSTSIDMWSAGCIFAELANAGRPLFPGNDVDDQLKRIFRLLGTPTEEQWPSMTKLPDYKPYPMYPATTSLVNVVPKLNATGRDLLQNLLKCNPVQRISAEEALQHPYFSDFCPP
Chain of Cyclin-dependent kinase 5/CDK5 activator 1 (Q15078 whole entry, further chain): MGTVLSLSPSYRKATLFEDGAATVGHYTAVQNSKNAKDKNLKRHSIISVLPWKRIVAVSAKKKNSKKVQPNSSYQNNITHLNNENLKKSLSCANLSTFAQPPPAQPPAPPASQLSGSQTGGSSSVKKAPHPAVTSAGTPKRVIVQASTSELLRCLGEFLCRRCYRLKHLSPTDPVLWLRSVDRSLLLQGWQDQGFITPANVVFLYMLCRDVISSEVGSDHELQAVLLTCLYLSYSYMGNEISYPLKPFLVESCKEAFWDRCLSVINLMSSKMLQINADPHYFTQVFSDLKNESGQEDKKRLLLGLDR
Chain of Phosphatidylinositol 4,5-bisphosphate 3-kinase catalytic subunit alpha isoform (P42336 whole entry, canonical isoform): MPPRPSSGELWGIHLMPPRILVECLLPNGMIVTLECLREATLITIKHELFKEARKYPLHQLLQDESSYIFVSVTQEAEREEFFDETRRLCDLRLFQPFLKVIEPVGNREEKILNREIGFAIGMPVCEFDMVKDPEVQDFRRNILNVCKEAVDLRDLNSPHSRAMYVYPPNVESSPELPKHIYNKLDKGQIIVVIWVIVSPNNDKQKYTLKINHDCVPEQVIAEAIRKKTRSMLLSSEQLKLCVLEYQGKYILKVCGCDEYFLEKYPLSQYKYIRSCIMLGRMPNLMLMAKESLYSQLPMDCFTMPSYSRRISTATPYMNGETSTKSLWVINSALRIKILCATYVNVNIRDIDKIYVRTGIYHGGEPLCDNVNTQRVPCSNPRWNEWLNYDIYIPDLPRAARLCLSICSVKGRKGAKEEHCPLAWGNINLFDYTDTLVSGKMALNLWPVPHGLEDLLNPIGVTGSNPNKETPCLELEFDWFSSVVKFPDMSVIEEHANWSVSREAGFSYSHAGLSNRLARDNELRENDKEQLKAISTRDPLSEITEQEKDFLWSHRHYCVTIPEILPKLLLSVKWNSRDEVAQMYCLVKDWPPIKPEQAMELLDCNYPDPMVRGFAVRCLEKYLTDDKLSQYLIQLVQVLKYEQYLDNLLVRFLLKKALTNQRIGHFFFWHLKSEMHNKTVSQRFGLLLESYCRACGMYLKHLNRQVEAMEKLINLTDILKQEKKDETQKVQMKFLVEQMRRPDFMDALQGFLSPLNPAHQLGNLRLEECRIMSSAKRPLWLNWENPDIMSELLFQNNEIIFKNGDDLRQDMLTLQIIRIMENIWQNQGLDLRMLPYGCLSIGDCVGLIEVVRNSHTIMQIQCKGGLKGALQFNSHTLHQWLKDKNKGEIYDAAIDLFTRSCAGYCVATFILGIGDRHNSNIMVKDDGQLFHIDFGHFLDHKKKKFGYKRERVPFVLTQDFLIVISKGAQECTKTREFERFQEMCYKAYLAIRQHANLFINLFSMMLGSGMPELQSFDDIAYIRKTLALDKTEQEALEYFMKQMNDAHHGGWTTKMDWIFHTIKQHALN

IC50 [1] [µM]	IC50 [2] [µM]	IC50 [3] [µM]	IC50 [9] [µM]	IC50 [10] [µM]	IC50 [11] [µM]	SMILES	IC50 [4] [µM]	IC50 [5] [µM]	IC50 [6] [µM]	IC50 [7] [µM]	IC50 [8] [µM]	inhibition (INH) [12] [%]	inhibition (INH) [13] [%]	inhibition (INH) [14] [%]
> 10	> 10	5	–	–	–	COc1ccc2[nH]c3c(=O)[nH]nc(C)c3c2c1	3	20	15	8	7	–	–	–
1.3	–	> 10	> 10	–	–	COc1ccc2[nH]c3c(=O)[nH]nc(-c4ccccc4)c3c2c1	–	–	–	–	–	–	–	–
1.4	> 10	1.5	> 10	> 25	> 25	COc1ccc(-c2n[nH]c(=O)c3[nH]c4ccc(OC)cc4c23)cc1	> 25	> 25	> 25	> 25	> 25	–	–	–
> 10	> 10	> 10	6.9	> 25	> 25	COc1ccc2[nH]c3c(=O)[nH]nc(-c4ccc(C(F)(F)F)cc4)c3c2c1	> 25	> 25	> 25	> 25	> 25	–	–	–
> 10	> 10	0.22	> 10	> 25	0.3	COc1ccc2[nH]c3c(=O)[nH]nc(-c4ccco4)c3c2c1	0.25	> 25	3	0.6	> 25	50	50	50
> 10	> 10	> 10	–	–	–	COc1ccc(Nc2cc(C)n[nH]c2=O)cc1	–	–	–	–	–	–	–	–
> 10	> 10	> 10	> 10	> 25	> 25	COc1ccc(Nc2cc(-c3ccccc3)n[nH]c2=O)cc1	> 25	> 25	> 25	> 25	> 25	–	–	–
2.5	> 10	5.1	–	–	–	COc1ccc(Nc2cc(-c3ccc(OC)cc3)n[nH]c2=O)cc1	–	–	–	–	–	–	–	–
> 10	> 10	> 10	> 10	> 25	> 25	COc1ccc(Nc2cc(-c3ccco3)n[nH]c2=O)cc1	> 25	> 25	> 25	> 25	> 25	–	–	–
9.6	> 10	0.61	> 10	> 25	> 25	COc1ccc(Nc2cc(-c3ccncc3)n[nH]c2=O)cc1	> 25	> 25	> 25	> 25	> 25	–	–	–
